Assay results: patent US10017741B2, “Compositions and methods for obtaining enriched mesenchymal stem cell cultures” (StemCell Technologies Inc., priority 2013, dated 2018)
“Also recorded” adds a separate entry of the source.

System: mouse BM-derived cells (MSC colonies)
Assay: Mouse BM-derived CFU-F assay
Assay type: cell-based
Details: 14 days
Protocol: a. Mouse BM and CB-Derived CFU-F Assay • 1. […] Medium was removed cultures washed with 2 mL PBS. • 4. Cells were fixed by adding 2 mL methanol/well and incubated at room temperature for 5 minutes. • 5. Methanol was removed and plates allowed to air dry for 5 minutes. • 6. To each well, 2 mL Toluidine blue solution was added and incubated for 30 minutes at room temperature. • 7. Toluidine blue solution was removed and wells rinsed with water. • 8. Water was removed and plates allowed to dry. • 9. Colony formation was assessed by enumeration and colony size. Mouse BM-derived cells were isolated as described previously and CFU-F assays setup as described above. […] Cultures were then stained with Toluidine blue and colony formation and appearance assessed. Three independent assays CFU-F assays for both BM- and CB-MSC were setup as in Example 4a and 4b. […] These assays were maintained for 14 days without media change. At the end of day 14, cultures were fixed and stained with toluidine blue and the number of MSC colonies counted.

[1] = BM-MSC, assay 1, 1 uM GW2580, 1.0 × 10^6 cells plated
[2] = BM-MSC, assay 1, 1 uM GW2580, 2.5 × 10^5 cells plated
[3] = BM-MSC, assay 1, 1 uM GW2580, 5.0 × 10^5 cells plated
[4] = BM-MSC, assay 1, 1 uM GW2580, Sum of the three densities
[5] = BM-MSC, assay 2, 2.5 uM GW2580, 1.0 × 10^6 cells plated
[6] = BM-MSC, assay 2, 2.5 uM GW2580, 2.5 × 10^5 cells plated
[7] = BM-MSC, assay 2, 2.5 uM GW2580, 5.0 × 10^5 cells plated
[8] = BM-MSC, assay 2, 2.5 uM GW2580, Sum of the three densities
[9] = BM-MSC, assay 3, 2.5 uM GW2580, 1.0 × 10^6 cells plated
[10] = BM-MSC, assay 3, 2.5 uM GW2580, 2.5 × 10^5 cells plated
[11] = BM-MSC, assay 3, 2.5 uM GW2580, 5.0 × 10^5 cells plated
[12] = BM-MSC, assay 3, 2.5 uM GW2580, Sum of the three densities

COc1ccc(COc2ccc(Cc3cnc(N)nc3N)cc2OC)cc1 [GW2580, 5-(3-Methoxy-4-((4-methoxybenzyl)oxy)benzyl)pyrimidine-2,4-diamine]
overall minimal increase in number of MSC colonies vs control (BM-MSC, 1 or 2.5 uM, three assays): ≥ 20% | % increase in number of MSC colonies vs control [1]: 26% | Number of MSC colonies [1]: 227 | % increase in number of MSC colonies vs control [2]: 26% | Number of MSC colonies [2]: 103 | % increase in number of MSC colonies vs control [3]: 44% | Number of MSC colonies [3]: 201 | % increase in number of MSC colonies vs control [4]: 32% | Number of MSC colonies [4]: 531 | % increase in number of MSC colonies vs control [5]: 21% | Number of MSC colonies [5]: 34 | % increase in number of MSC colonies vs control [6]: 0% | Number of MSC colonies [6]: 3 | % increase in number of MSC colonies vs control [7]: 109% | Number of MSC colonies [7]: 23 | % increase in number of MSC colonies vs control [8]: 40% | Number of MSC colonies [8]: 60 | % increase in number of MSC colonies vs control [9]: 50% | Number of MSC colonies [9]: 60 | % increase in number of MSC colonies vs control [10]: 67% | Number of MSC colonies [10]: 5 | % increase in number of MSC colonies vs control [11]: 70% | Number of MSC colonies [11]: 17 | % increase in number of MSC colonies vs control [12]: 55% | Number of MSC colonies [12]: 82 | increase in colony number compared to control cultures (BM-derived, 1 μM): at least 20% | MSC CFU-F appearance (colony size, macrophages) (BM-derived, 1 μM, Toluidine blue): bigger in size and have a much reduced number of macrophages; also recorded: larger, enriched MSC CFU-F that are mostly free of macrophages
